{"source": "ChEMBL document CHEMBL6182871", "about": "“Discovery of 4-((quinolin-8-ylthio)methyl)benzamide derivatives as a new class of SARS-CoV-2 nsp13 inhibitors” (Bioorg Med Chem Lett, 2025)", "data": [{"target": "T1, Replicase polyprotein 1ab (Severe acute respiratory syndrome coronavirus 2, UniProt P0DTD1)", "test": "Inhibition of SARS-CoV-2 nsp13 by FRET assay", "units": {"IC50": "nM"}, "values": [{"compound": "O=C(N/N=C/c1cccc2ccncc12)c1ccc(CSc2cccc3cccnc23)cc1", "IC50": 4330}, {"compound": "O=C(N/N=C/c1cc([N+](=O)[O-])ccc1Cl)c1ccc(CSc2cccc3ccccc23)cc1", "IC50": "> 10000"}, {"compound": "O=C(N/N=C/c1cc(F)c(F)cc1O)c1ccc(CSc2cccc3cccnc23)cc1", "IC50": 2340}, {"compound": "O=C(N/N=C/c1cc([N+](=O)[O-])ccc1Cl)c1ccc(CSc2ccccc2Br)cc1", "IC50": "> 10000"}, {"compound": "O=C(N/N=C/c1cc([N+](=O)[O-])ccc1Cl)c1ccc(CNc2cccc3ccccc23)cc1", "IC50": "> 10000"}, {"compound": "O=C(N/N=C/c1c(Cl)nc(Cl)nc1Cl)c1ccc(CSc2cccc3cccnc23)cc1", "IC50": 2940}, {"compound": "O=C(N/N=C/c1cc([N+](=O)[O-])ccc1Cl)c1ccc(CSc2cccc3cccnc23)cc1", "IC50": 280}, {"compound": "CSc1nnc(SCc2ccc(C(=O)N/N=C/c3cc([N+](=O)[O-])ccc3Cl)cc2)s1", "IC50": "> 10000"}, {"compound": "O=C(N/N=C/c1ccc(F)nc1)c1ccc(CSc2cccc3cccnc23)cc1", "IC50": 660}, {"compound": "O=C(N/N=C/c1cc(O)c(Br)c(O)c1)c1ccc(CSc2cccc3cccnc23)cc1", "IC50": 2060}, {"compound": "O=C(N/N=C/c1cccc(F)c1O)c1ccc(CSc2cccc3cccnc23)cc1", "IC50": 2980}, {"compound": "COc1ccc(/C=N/NC(=O)c2ccc(CSc3cccc4cccnc34)cc2)cc1", "IC50": 960}, {"compound": "O=C(N/N=C/c1cc2ccncc2[nH]1)c1ccc(CSc2cccc3cccnc23)cc1", "IC50": "> 10000"}, {"compound": "O=C(N/N=C/c1c(O)ccc2ccccc12)c1ccc(CSc2cccc3cccnc23)cc1", "IC50": 3920}, {"compound": "O=C(N/N=C/c1ncccn1)c1ccc(CSc2cccc3cccnc23)cc1", "IC50": "> 10000"}, {"compound": "COc1ccc(/C=N/NC(=O)c2ccc(CSc3cccc4cccnc34)cc2)c(O)c1", "IC50": 5440}, {"compound": "COc1cc(/C=N/NC(=O)c2ccc(CSc3cccc4cccnc34)cc2)ccc1O", "IC50": 9190}, {"compound": "CC(C)NC(=O)c1ccc(/C=N/NC(=O)c2ccc(CSc3cccc4cccnc34)cc2)cc1", "IC50": 940}, {"compound": "O=C(N/N=C/c1cc2c(cc1[N+](=O)[O-])OCO2)c1ccc(CSc2cccc3cccnc23)cc1", "IC50": 430}, {"compound": "O=C(N/N=C/c1ccc(Br)o1)c1ccc(CSc2cccc3cccnc23)cc1", "IC50": "> 10000"}, {"compound": "C/C(=N\\NC(=O)c1ccc(CSc2cccc3cccnc23)cc1)c1ccc(F)nc1", "IC50": "> 10000"}, {"compound": "O=C(N/N=C/c1ccc(Cl)nc1)c1ccc(CSc2cccc3cccnc23)cc1", "IC50": 5100}, {"compound": "O=C(N/N=C/c1cc([N+](=O)[O-])ccc1Cl)c1ccc(COc2cccc3ccccc23)cc1", "IC50": "> 10000"}, {"compound": "COc1ccc(/C=N/NC(=O)c2ccc(CSc3cccc4cccnc34)cc2)cc1OC", "IC50": 4970}, {"compound": "O=C(N/N=C/c1ccc(F)cc1O)c1ccc(CSc2cccc3cccnc23)cc1", "IC50": 2700}, {"compound": "O=C(N/N=C/c1ccc(F)cc1)c1ccc(CSc2cccc3cccnc23)cc1", "IC50": 2570}, {"compound": "O=C(N/N=C/c1c(Cl)ccnc1Cl)c1ccc(CSc2cccc3cccnc23)cc1", "IC50": 480}, {"compound": "O=C(N/N=C/c1cc([N+](=O)[O-])ccc1Cl)c1ccc(CSc2ccnc3ccccc23)cc1", "IC50": 760}, {"compound": "Cn1cc(/C=N/NC(=O)c2ccc(CSc3cccc4cccnc34)cc2)cn1", "IC50": 26800}, {"compound": "COc1cc(F)ccc1/C=N/NC(=O)c1ccc(CSc2cccc3cccnc23)cc1", "IC50": 2850}]}, {"target": "T1, Replicase polyprotein 1ab", "test": "Binding affinity to SARS-CoV-2 nsp13 assessed as dissociation constant by MST assay", "units": {"Kd": "nM"}, "values": [{"compound": "Cn1cc(/C=N/NC(=O)c2ccc(CSc3cccc4cccnc34)cc2)cn1", "Kd": 46100}]}]}
